Measurements published in patent publication US9193673B2, “Derivatives of mesalazine, process of their preparation and their use in the treatment of intestinal inflammatory diseases” (SOFAR SPA, priority 2010, dated 2015).

How the values were obtained:
[1] = Stability in simulated gastric and simulated intestinal fluids; format: physicochemical
Method: Such study is conducted with the aim of evaluating the stability of the compound (IV) at […] in absence of enzymes of the intestinal bacterial flora.
(§1) The stability of the compound (IV) is compared to that of known reference standards.

[2] = Stability in murine intestinal homogenate; format: in vitro ADME, rat; details: rat intestinal homogenate, reference standard (concentration not given)
Method: Such study is conducted with the aim of evaluating the stability of the compound (IV) in intestinal homogenate.
as §1

[3] = Hydrolysis in rat intestine preserved in different conditions; format: in vitro ADME
Method: Such study is conducted with the aim of surveying the stability of the compound (IV) in rat intestine homogenate preserved in different conditions: frozen at […] and at −80° C.
as §1

[4] = Permeability on the Caco2 cellular line; format: in vitro ADME; details: human, Caco-2; Apical (pH 6.5) → Basolateral (pH 7.4), Caco2; read-out: Papp A→B (nm/sec) Mean ± SD
Method: (§2) Such study is conducted with the aim of evaluating the capacity of the molecule to permeate the intestinal epithelium and be absorbed thereby evaluating the Papp (apparent permeability coefficient). The Papp of the compound (IV) is compared to that of the known reference standards.

Caco2 cellular line = assay: Permeability on the Caco2 cellular line; format: in vitro ADME; details: A→B, Caco2
Method: as §2

Structure (SMILES) | % Residue ([1]; SGF, 30 min incubation) | % Residue ([1]; SGF, 60 min incubation) | % Residue ([1]; SIF, 30 min incubation) | % Residue ([1]; SIF, 60 min incubation) | Residue percentage ([2]; 30 min) | Residue percentage ([2]; 1 hr) | Residue percentage ([2]; 2 hrs) | Residue percentage ([2]; 4 hrs) | Stability in rat intestine (residue %) ([3]; fresh homogenate, 15 min) | Stability in rat intestine (residue %) ([3]; fresh homogenate, 30 min) | Stability in rat intestine (residue %) ([3]; fresh homogenate, 60 min) | Stability in rat intestine (residue %) ([3]; homogenate 4° C., 15 min) | Stability in rat intestine (residue %) ([3]; homogenate 4° C., 30 min) | Stability in rat intestine (residue %) ([3]; homogenate 4° C., 60 min) | Stability in rat intestine (residue %) ([3]; intestine −80° C., 15 min) | Stability in rat intestine (residue %) ([3]; intestine −80° C., 30 min) | Stability in rat intestine (residue %) ([3]; intestine −80° C., 60 min) | Papp A→B [4] | A→B Mean mass balance % (Caco2 cellular line)
O=C(O)CCCc1ccc(N(CCCl)CCCl)cc1 [Chlorambucil, reference compound] | 92.8 ± 2.1% | 89.8 ± 1.5% | 42.1 ± 0.5% | 13.9 ± 0.3% | 49.5 ± 7.8% | 16.9 ± 2.2% | 1.5 ± 0.1% | 0.20 ± 0.08% | 75.2 ± 3.8% | 58.7 ± 2.3% | 28.0 ± 1.5% | 76.5 ± 5.0% | 53.0 ± 13.9% | 25.9 ± 5.3% | 73.0 ± 1.2% | 25.0 ± 6.1% | 6.9 ± 1.4% | – | –
CC[C@H]1OC(=O)[C@H](C)[C@@H](O[C@H]2C[C@@](C)(OC)[C@@H](O)[C@H](C)O2)[C@H](C)[C@@H](O[C@@H]2O[C@H](C)C[C@H](N(C)C)[C@H]2O)[C@](C)(O)C[C@@H](C)C(=O)[C@H](C)[C@@H](O)[C@]1(C)O [Erythromycin, reference compound] | 0.2 ± 0.1% | 0.1 ± 0.1% | 98.1 ± 1.4% | 100.9 ± 0.4% | 83.5 ± 3.6% | 84.7 ± 3.6% | 95.0 ± 11.0% | 97.5 ± 2.8% | – | – | – | – | – | – | – | – | – | – | –
CC[C@]1(O)C[C@@H]2CN(CCc3c([nH]c4ccccc34)[C@@](C(=O)OC)(c3cc4c(cc3OC)N(C)[C@H]3[C@@](O)(C(=O)OC)[C@H](OC(C)=O)[C@]5(CC)C=CCN6CC[C@]43[C@@H]65)C2)C1 [Vinblastine, reference compound] | – | – | – | – | – | – | – | – | – | – | – | – | – | – | – | – | – | 0.41 ± 0.21 ×10⁻⁶ cm/s | 89%
